Patent publication US20050106242A1, “Melt blend dispersions” (priority 2003, published 2005)
Converted amounts (≈) assume the structure as drawn.

How the values were obtained:
[1] = Water solubility of progesterone in artificial intestinal fluid; assay type: physicochemical; settings: fassgf or other biorelevant; at 37° C. in artificial intestinal fluid (AIF)
[2] = Particle size of progesterone precipitation in AIF (Horiba LA-910 laser scattering); assay type: physicochemical; settings: ~4 mg progesterone in 15 ml AIF, shaken at 37° C.; FIG. 1 and FIG. 2
Method: Samples as indicated below containing ˜4 mg of progesterone were added to 15 ml AIF and then were shaken in a water bath at 37° C. The particle size of the progesterone precipitation was measured with Horiba LA-910 laser scattering particle size analyzer.

CC(=O)[C@H]1CC[C@H]2[C@@H]3CCC4=CC(=O)CC[C@]4(C)[C@H]3CC[C@]12C [Progesterone, pregn-4-ene-3,20-dione]
solubility [1]: 12 µg/mL (≈ 38.2 µM)
mean particle size [2]: 72.4 μm
